Reference: ChEMBL document CHEMBL5614367, “Hydroxamic acid hybrids: Histone deacetylase inhibitors with anticancer therapeutic potency” (Eur J Med Chem, 2023)
One block for each compound: values may come before it.

Key:
[1] = biological target: T1, Protein deacetylase HDAC6 (Homo sapiens, UniProt Q9UBN7); experiment: Inhibition of HDAC6 (unknown origin)
T1 sequence (Q9UBN7 whole entry): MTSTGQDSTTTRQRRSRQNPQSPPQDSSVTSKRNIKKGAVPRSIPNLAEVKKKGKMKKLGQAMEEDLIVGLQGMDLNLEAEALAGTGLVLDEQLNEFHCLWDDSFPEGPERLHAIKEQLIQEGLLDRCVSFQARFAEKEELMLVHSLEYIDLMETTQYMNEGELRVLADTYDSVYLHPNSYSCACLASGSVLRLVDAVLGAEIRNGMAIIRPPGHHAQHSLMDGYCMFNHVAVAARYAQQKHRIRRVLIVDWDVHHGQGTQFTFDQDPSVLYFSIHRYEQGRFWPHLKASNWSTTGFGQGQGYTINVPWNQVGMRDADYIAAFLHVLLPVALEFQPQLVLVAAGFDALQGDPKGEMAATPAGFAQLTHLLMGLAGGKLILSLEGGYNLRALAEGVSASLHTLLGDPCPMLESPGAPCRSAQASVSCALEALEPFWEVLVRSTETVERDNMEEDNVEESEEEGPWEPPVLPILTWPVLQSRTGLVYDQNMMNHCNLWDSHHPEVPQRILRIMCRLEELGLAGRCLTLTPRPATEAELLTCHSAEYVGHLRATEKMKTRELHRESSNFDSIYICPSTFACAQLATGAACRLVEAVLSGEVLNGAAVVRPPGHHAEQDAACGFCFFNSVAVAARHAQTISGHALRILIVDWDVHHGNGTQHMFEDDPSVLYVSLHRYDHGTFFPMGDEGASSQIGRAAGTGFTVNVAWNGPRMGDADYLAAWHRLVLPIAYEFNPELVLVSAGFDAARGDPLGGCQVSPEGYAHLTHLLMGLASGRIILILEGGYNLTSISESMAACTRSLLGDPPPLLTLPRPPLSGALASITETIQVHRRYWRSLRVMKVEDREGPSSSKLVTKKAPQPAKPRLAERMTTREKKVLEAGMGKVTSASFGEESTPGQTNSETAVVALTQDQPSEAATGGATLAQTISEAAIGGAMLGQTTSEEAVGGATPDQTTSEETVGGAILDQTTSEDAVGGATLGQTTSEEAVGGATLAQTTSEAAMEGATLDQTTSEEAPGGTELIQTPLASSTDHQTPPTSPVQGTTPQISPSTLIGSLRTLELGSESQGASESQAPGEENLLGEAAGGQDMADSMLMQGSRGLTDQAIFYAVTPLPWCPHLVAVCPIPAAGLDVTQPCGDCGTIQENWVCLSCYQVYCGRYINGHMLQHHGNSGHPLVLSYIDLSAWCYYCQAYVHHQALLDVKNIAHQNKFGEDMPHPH

TALL-1 = experiment: Antiproliferative activity against human TALL-1 cells; assay type: functional, cell-based
MOLT-4 [2] = experiment: Antiproliferative activity against human MOLT-4 cells; assay type: functional, cell-based
K562 [3] = experiment: Antiproliferative activity against human K562 cells; assay type: functional, cell-based
HL-60 = experiment: Antiproliferative activity against human HL-60 cells; assay type: functional, cell-based
Jurkat = experiment: Antiproliferative activity against human Jurkat cells; assay type: functional, cell-based
CCRF-HSB-2 = experiment: Antiproliferative activity against human CCRF-HSB-2 cells; assay type: functional, cell-based
[4] = biological target: Serine/threonine-protein kinase B-raf (Homo sapiens, UniProt P15056, V600E); experiment: Inhibition of BRAF V600E mutant (unknown origin)
Serine/threonine-protein kinase B-raf (Homo sapiens, UniProt P15056, V600E), sequence (P15056 2-766 V600E limits assumed): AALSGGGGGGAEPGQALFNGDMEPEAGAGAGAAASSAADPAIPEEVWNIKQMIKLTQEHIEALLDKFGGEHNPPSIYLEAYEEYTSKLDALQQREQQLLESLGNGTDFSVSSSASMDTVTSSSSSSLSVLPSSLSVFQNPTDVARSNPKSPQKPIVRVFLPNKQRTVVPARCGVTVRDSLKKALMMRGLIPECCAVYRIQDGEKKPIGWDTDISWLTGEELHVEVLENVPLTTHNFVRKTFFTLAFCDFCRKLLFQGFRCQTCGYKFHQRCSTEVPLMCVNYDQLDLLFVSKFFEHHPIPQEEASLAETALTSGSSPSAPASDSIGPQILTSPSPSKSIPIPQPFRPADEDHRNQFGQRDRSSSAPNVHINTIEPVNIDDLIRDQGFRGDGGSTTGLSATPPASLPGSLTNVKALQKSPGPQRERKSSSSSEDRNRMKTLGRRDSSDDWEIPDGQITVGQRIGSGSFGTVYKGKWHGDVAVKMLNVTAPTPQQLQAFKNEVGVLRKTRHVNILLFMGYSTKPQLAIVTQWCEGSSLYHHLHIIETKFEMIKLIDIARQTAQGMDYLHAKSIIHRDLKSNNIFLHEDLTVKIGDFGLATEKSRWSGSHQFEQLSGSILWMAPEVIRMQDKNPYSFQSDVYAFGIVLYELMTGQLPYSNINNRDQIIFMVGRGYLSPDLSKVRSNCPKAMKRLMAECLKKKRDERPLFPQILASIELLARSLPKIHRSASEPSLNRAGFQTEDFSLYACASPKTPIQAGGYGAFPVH

[5] = biological target: Serine/threonine-protein kinase B-raf (Homo sapiens, UniProt P15056); experiment: Inhibition of wild type BRAF (unknown origin)
Serine/threonine-protein kinase B-raf (Homo sapiens, UniProt P15056), sequence (P15056 whole entry): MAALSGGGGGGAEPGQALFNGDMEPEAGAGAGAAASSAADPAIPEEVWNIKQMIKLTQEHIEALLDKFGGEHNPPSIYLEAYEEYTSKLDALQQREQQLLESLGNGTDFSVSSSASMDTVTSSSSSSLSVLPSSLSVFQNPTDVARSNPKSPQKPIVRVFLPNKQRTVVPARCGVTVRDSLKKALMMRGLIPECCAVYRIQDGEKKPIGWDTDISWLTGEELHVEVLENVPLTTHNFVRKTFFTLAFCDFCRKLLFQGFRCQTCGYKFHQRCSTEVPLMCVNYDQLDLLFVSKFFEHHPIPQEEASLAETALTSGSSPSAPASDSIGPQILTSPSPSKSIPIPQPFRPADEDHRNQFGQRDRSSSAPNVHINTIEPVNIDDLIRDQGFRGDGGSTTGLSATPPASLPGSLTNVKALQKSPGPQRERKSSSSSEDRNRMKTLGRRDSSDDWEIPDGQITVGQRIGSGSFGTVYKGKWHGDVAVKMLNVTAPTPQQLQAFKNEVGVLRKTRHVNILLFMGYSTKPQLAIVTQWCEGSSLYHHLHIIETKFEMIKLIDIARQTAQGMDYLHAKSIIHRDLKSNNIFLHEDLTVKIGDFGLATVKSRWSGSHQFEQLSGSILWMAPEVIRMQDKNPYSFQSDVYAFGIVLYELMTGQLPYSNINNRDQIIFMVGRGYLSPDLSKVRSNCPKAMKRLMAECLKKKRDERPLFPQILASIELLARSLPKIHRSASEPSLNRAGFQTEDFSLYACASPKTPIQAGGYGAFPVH

HCT-116 [6] = experiment: cells; details: Homo sapiens
Description: Antiproliferative activity against human HCT-116 cells

HCT 116 TP53(-/-) = experiment: cells; assay type: functional, cell-based; details: Homo sapiens, 72 h
HepG2 = experiment: cells; assay type: functional, cell-based; details: Homo sapiens, HepG2, 72 h
518A2 = experiment: cells; assay type: functional, cell-based; details: Homo sapiens, 518A2, 72 h
Huh-7 = experiment: cells; assay type: functional, cell-based; details: Homo sapiens, Huh-7, 72 h
HCT-116 [7] = experiment: cells; assay type: functional, cell-based; details: Homo sapiens, HCT-116, 72 h
[8] = Cytotoxicity against human HDFa cells assessed as inhibition of cell growth incubated for 72 hrs by MTT assay; assay type: toxicity, cell-based
Histone deacetylase 1 = Histone deacetylase 1 (Homo sapiens, UniProt Q13547); experiment: Inhibition of HDAC1 (unknown origin) preincubated for 10 mins followed by substrate addition and measured after 30 mins by fluorescence based microplate reader analysis
Histone deacetylase 1, sequence (Q13547 whole entry): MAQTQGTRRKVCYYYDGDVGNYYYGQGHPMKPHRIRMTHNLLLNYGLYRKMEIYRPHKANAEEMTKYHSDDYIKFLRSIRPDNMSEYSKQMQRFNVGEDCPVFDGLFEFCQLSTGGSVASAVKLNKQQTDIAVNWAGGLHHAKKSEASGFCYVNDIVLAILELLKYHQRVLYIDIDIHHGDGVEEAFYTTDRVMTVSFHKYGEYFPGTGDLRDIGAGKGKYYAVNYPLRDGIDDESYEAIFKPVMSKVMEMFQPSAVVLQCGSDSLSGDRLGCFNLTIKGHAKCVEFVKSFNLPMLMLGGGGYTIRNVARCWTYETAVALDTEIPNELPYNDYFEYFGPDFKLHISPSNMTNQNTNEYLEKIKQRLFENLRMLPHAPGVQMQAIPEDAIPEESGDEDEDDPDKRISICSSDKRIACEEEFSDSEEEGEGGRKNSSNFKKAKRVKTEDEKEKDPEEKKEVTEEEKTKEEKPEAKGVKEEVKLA

HEL [9] = experiment: Antiproliferative activity against human HEL cells measured after 72 hrs by CCK-8 assay; assay type: functional, cell-based
SU-DHL-2 = experiment: Antiproliferative activity against human SU-DHL-2 cells measured after 72 hrs by CCK-8 assay; assay type: functional, cell-based; details: SU-DHL-2, 72 h
K562 [10] = experiment: Antiproliferative activity against human K562 cells measured after 72 hrs by CCK-8 assay; assay type: functional, cell-based; details: K562, 72 h
MV4-11 = experiment: Antiproliferative activity against human MV4-11 cells measured after 72 hrs by CCK-8 assay; assay type: functional, cell-based; details: MV4-11, 72 h
WSUDLCL2 = experiment: Antiproliferative activity against human WSUDLCL2 cells measured after 72 hrs by CCK-8 assay; assay type: functional, cell-based; details: WSUDLCL2, 72 h
[11] = Metabolic stability in human liver microsomes assessed as half life by LC-MS/MS analysis; assay type: ADME, Microsome
[12] = Metabolic stability in human plasma assessed as half life by LC-MS/MS analysis; assay type: ADME, cell-free
MDA-MB-231 [13] = experiment: Antitumor activity against human MDA-MB-231 cells xenografted in BALB/c nude mouse assessed as tumor growth inhibition by measuring test to control ratio at 30 mg/kg/day, po measured every 3 days for 22 days relative to control; assay type: functional; details: time 22 day
MDA-MB-231 [14] = experiment: Antitumor activity against human MDA-MB-231 cells xenografted in BALB/c nude mouse assessed as tumor growth inhibition at 30 mg/kg/day, po measured every 3 days for 22 days relative to control; assay type: functional; details: MDA-MB-231, 528 h, time 22 day, read-out: TGI
HL60/ADR = experiment: Antiproliferative activity against human HL-60/ADR cells
[15] = Antiproliferative activity against human HL-60/Vinc cells; details: HL60/vinc
MCF7 [16] = experiment: cells; details: Homo sapiens
[17] = Cytotoxicity against HEK293 cells; assay type: toxicity, cell-based; details: human
PC-3 = experiment: Antiproliferative activity against human PC-3 cells assessed as inhibition of cell growth incubated for 72 hrs by MTT assay; assay type: functional, cell-based; details: PC-3, 72 h
MOLT-4 [18] = experiment: Antiproliferative activity against human MOLT-4 cells assessed as inhibition of cell growth incubated for 72 hrs by MTT assay; assay type: functional, cell-based; details: MOLT-4, 72 h
KG-1 = experiment: Antiproliferative activity against human KG-1 cells assessed as inhibition of cell growth incubated for 72 hrs by MTT assay; assay type: functional, cell-based; details: KG-1, 72 h
SK-N-BE(2) = experiment: Antiproliferative activity against human SK-N-BE(2) cells assessed as inhibition of cell growth incubated for 72 hrs by MTT assay; assay type: functional, cell-based; details: SKNBE2, 72 h
MCF7 [19] = experiment: Antiproliferative activity against human MCF7 cells assessed as inhibition of cell growth incubated for 72 hrs by MTT assay; assay type: functional, cell-based; details: MCF7, 72 h
MDA-MB-231 [20] = experiment: Antiproliferative activity against human MDA-MB-231 cells assessed as inhibition of cell growth incubated for 72 hrs by MTT assay; assay type: functional, cell-based; details: MDA-MB-231, 72 h
HEL [21] = experiment: Antiproliferative activity against human HEL cells assessed as inhibition of cell growth incubated for 72 hrs by MTT assay; assay type: functional, cell-based

- IC50 [1]: 60 nM
- IC50 (MOLT-4 [2]): 22500 nM
- IC50 (K562 [3]): 22500 nM
- IC50 (HL-60): 22500 nM
- IC50 (Jurkat): 22500 nM
- IC50 (CCRF-HSB-2): 22500 nM
Structure (SMILES): O=C(NO)c1ccc(CN(Cc2nnnn2Cc2ccccc2)C(=O)c2ccccc2C(F)(F)F)cc1
- IC50 (TALL-1): 22500 nM

- IC50 [1]: 15.6 nM
- IC50 [4]: 1.71 nM
- IC50 [5]: 1.71 nM
- IC50 (HCT-116 [6]): 310 nM
Structure (SMILES): O=C(CCCCCCNc1nccc(-c2sc(-c3ccccc3)nc2-c2cccc(NS(=O)(=O)c3c(F)cccc3F)c2F)n1)NO

- IC50 (HCT 116 TP53(-/-)): 180 nM
- IC50 [1]: ~1000 nM
- IC50 (HepG2): 180 nM
- IC50 (518A2): 180 nM
- IC50 (Huh-7): 180 nM
- IC50 (HCT-116 [7]): 180 nM
Structure (SMILES): COc1ccc(-c2ocnc2-c2cc(OC)c(OC)c(OC)c2)cc1OCCCC(=O)NO
- IC50 at 72 h [8]: > 50000 nM

- IC50 (Histone deacetylase 1): 8 nM
- IC50 (SU-DHL-2): 1000 nM
- IC50 (K562 [10]): 1000 nM
- IC50 (MV4-11): 1000 nM
Structure (SMILES): C=C[C@]1(C)CC[C@@H](C(=C)Cn2cccn2)C[C@H]1C(=C)CN1CCN(C(=O)CCCCCCC(=O)NO)CC1
- IC50 (HEL [9]): 1000 nM
- IC50 (WSUDLCL2): 1000 nM

- half-life [11]: 56 min
- half-life [12]: > 120 min
Structure (SMILES): O=C(CCCCCCC(=O)Nc1nc2ccc(OC(F)(F)F)cc2s1)NO
- T/C (MDA-MB-231 [13]): 55%
- inhibition in vivo at 30 mg/kg/day (MDA-MB-231 [14]): 59%

- IC50 (HL60/ADR): 2320 nM
- IC50 (HL-60): 2320 nM
- IC50 (Jurkat): 2320 nM
- IC50 (MCF7 [16]): 2320 nM
- IC50 (HCT-116 [6]): 2320 nM
Structure (SMILES): CN(C)c1nc2c(Br)c(Br)c(Br)c(Br)c2n1CCCCCCCC(=O)NO
- IC50 [15]: 2320 nM
- IC50 [17]: 2320 nM

- IC50 (PC-3): > 10000 nM
- IC50 (MOLT-4 [18]): > 10000 nM
- IC50 (SK-N-BE(2)): > 10000 nM
- IC50 (MCF7 [19]): > 10000 nM
- IC50 (MDA-MB-231 [20]): > 10000 nM
Structure (SMILES): Nc1nc2ccc(OC(F)(F)F)cc2s1 [RILUZOLE]
- IC50 (KG-1): > 10000 nM
- IC50 (HEL [21]): > 10000 nM
